Several values for one entry are separate records, joined by “and”; a condition that tells them apart may be missing. Identical values can stand only once. Entries after “also recorded” stand apart in the source; their conditions may differ.
How the values were obtained:
[1] = test system: retinal ganglion cells (RGC); assay: RGC survival after optic nerve crush, βIII-tubulin-stained retinal whole mounts; assay type: in vivo, mouse; conditions: for RGC survival when chelator given only on Day 3: single administration 3 d after ONC
Description: (§1) Studies were performed at Children's Hospital Boston with the approval of the Institutional Animal Care and Use Committee. Experiments used male mice of the strain C57BL/6J (Jackson lab, Bar Harbor, Me.), at 8- to 10-week-old age.
(§2) Adult mice were anesthetized with a combination of ketamine and xylazine given intraperitoneally. A conjunctival incision was made over the dorsal aspect of one eye, which is then gently rotated downward in the orbit. The orbital muscles were slightly separated to expose the optic nerve at its exit from the globe, which were then crushed for 5 seconds with jewelers' forceps (Dumont number 5) near the back of the eye (within 0.5 mm). […] Same volume PBS was injected intravitreally in control group.
(§3) Mice were sacrificed with an overdose of anesthesia 14 d after optic nerve injury and were perfused with saline and 4% paraformaldehyde (PFA). […]. Optic nerves and eyes were dissected and postfixed in PFA. Nerves were impregnated with 30% sucrose, embedded in OCT Tissue Tek Medium (Sakura Finetek), frozen, cut in the longitudinal plane at 14 μm, and mounted on coated slides. Regenerating axons were visualized by staining with a sheep antibody to GAP-43 followed by a fluorescently labeled secondary antibody.
Images of eight preselected areas, 2 mm from the optic disc were captured under fluorescent illumination (400×; E800; Nikon). βIII-Tubulin-positive cells were counted using NIH ImageJ software (Wayne Rasband, National Institutes of Health, Bethesda, Md.). Cell densities were averaged across all eight areas.

[2] = test system: RGC axons in the optic nerve; assay: Optic nerve axon regeneration after optic nerve crush, GAP-43-positive axons distal to the crush site; assay type: in vivo, mouse; conditions: for effect on axon regeneration: intraocular injection, days 0 and 4 after ONC; for effect on axon regeneration / most effective concentration for axon regeneration: evaluated at 2 weeks; for maximally effective concentration for axon regeneration (unit not given): FIG. 4 / FIG. 7, 2 weeks after optic nerve injury, multiple injections; for added effect of pre-treatment (additional injection one day before ONC) on axon regeneration: compared with 2 post-injury injections; for most effective concentration for axon regeneration: intraocular injection immediately after optic nerve crush and 4 days later; for axon regeneration in combination with pten gene deletion: pten deleted in RGCs by AAV2-Cre, 2 weeks
Description: as §1, §2, §3
Axon growth was quantified by counting the number of GAP-43-positive axons extending 0.5, 1, 1.5 and 2 mm from the end of the crush site in at least eight sections per case. The cross-sectional width of the nerve was measured at the point at which the counts were taken and was used to calculate the number of axons per millimeter of nerve width. The number of axons per millimeter was then averaged over the number of sections. Σad, the total number of axons extending distance din a nerve having a radius of r, was estimated by summing over all sections having a thickness t (14 μm):
Σad=πr^2×[average axons/mm]/t

[3] = test system: free Zn^2+ in the inner plexiform layer of the retina; assay: Free Zn2+ in the retina after optic nerve injury by autometallography (AMG); assay type: in vivo, mouse; conditions: chelator injected intraocularly
Description: A) and B) Mice underwent unilateral optic nerve injury and received i.p. injections of sodium selenite immediately afterwards. Levels of free Zn^2+ increase within 6 hours. C) and D) TPEN (100 μM injections starting 1 day before nerve injury) suppresses the increase in free Zn^2+. The temporal resolution of this method is limited by the time delay for TPEN to reach the retina.
We investigated the hypothesis that the liberation of free Zn2+ plays a role in RGC death after axonal injury.
To investigate the possible relationship between ionic Zn^2+ and nerve regeneration, we used autometallography (AMG) to examine changes in the retina, injecting Na2SeO3 i.p. at various times after ONC and euthanizing mice 6 hr later. We detected a dramatic increase in labeling in the IPL, the layer of the retina that contains synaptic inputs from retinal interneurons onto RGC dendrites, especially in 2 sublayers (FIG. 11B). IPL labeling in-creased up to 24 hr but declined by 3 days, at which time labeling appeared in RGCs themselves. […] This interpretation is supported by studies using a membrane-permeable fluorescent Zn^2+ sensor, Zinpyr1, which has a strong preference for Zn^2+ over Ca^2+ (41). […] As with AMG, Zinpyr1 labeling was elevated in RGCs but not IPL at 3 days (FIG. 11K). The Zn^2+ transporter ZnT3 is also localized in the IPL (FIG. 11L).

[4] = test system: Bcl-xL; assay: Bcl-xL immunostaining of retinal cross-sections 5 days after optic nerve crush; assay type: in vivo, mouse
Text: (§4) FIG. 6A-FIG. 6C show results from experiments that indicate Chelation of free Zn^2+ suppresses molecular changes that lead to RGC apoptosis. A) Cross-sections through the normal retina or 5 days after optic nerve crush, with or without treatment with the Zn^2+ chelator TPEN. Sections were immunostained to detect the anti-apoptotic protein Bcl-xL or the pro-apoptotic enzymes Caspase-3 or -8. B) C) Quantitation of cellular changes (avg. number of stained cells per section). Optic nerve injury causes a marked elevation of Caspases-3 and -8. […] BclxL levels have not been quantified yet, but appear to decrease with optic nerve injury and to be partially preserved by TPEN treatment. gcl: ganglion cell layer; ipl, inner plexiform layer; ink inner nuclear layer.
(§5) Retinal cross-sections from normal mice or 5 days after optic nerve crush, with or without TPEN treatment. Sections were immunostained for the anti-apoptotic protein Bcl-xL or the pro-apoptotic enzymes Caspase-3 or -8. Optic nerve injury causes a marked elevation of Caspases-3 and -8 and a decline in Bcl-xL. TPEN diminishes the expression of Caspases-3 and -8 and attenuates the decline in Bcl-xL gcl: ganglion cell layer; ipl, inner plexiform layer; inl, inner nuclear layer.

[5] = test system: Caspase-3; assay: Caspase-3 immunostaining of retinal cross-sections 5 days after optic nerve crush; assay type: in vivo, mouse
Text: as §4, §5

[6] = test system: Adult rat RGCs; assay: Axon outgrowth in cultured adult RGCs in defined media; assay type: cell-based; conditions: ZX1 10 μM; with or without forskolin, mannose, oncomodulin
[7] = test system: porcine liver esterase (PLE); assay: Enzymatic cleavage by esterase followed by UV/vis; assay type: in vitro ADME; conditions: 25% MeOH/PBS at 37° C., 0.2 unit/ml porcine liver esterase
Description: A) change of UV/vis spectrum of 3 in 25% MeOH/PBS upon addition of esterase at 37° C. The final spectrum matched the spectrum of ZX1 (B). A) Insert: the decrease of absorbance at 340 nm.
The AcOTFMB sulfonate ester, 1, was synthesized with 88% yield by esterifying 2-nitrobenzenesulfonyl chloride with the corresponding alcohol in the presence of DABCO as the base. Reduction of the nitro functionality with hydrogen afforded the aniline, 2, with 99% yield. The dipicolylamine (DPA) zinc-binding unit can be installed to the aniline via reduction amination to afford the target molecule, 3, in 10% yield (Scheme 1). […] In 25% MeOH/PBS at 37° C., upon introduction of 0.2 unit/ml porcine liver esterase (PLE), The UV/vis spectrum gradually changes with an isosbestic point of 317 nm, to produce a peak at 307 nm (FIG. 10).

[8] = Hydrolytic stability of the sulfonate ester at pH 7; assay type: physicochemical
[9] = injected into the eye just after ONC and again after 4 days

O=C(O)CN(CCN(CC(=O)O)CC(=O)O)CC(=O)O.[Ca] [CaEDTA]
effect on RGC survival 2 weeks after ONC [1, 9]: doubled
effect on RGC survival 2 weeks after ONC ([1]; injected into the eye just after ONC and again after 4 days, listed as Ca-EDTA): promotes cell survival
effect on axon regeneration [2]: led to axon outgrowth

CC[N+](CC)(CC)CC [TEA, tetraethylammonium]
RGC survival after optic nerve injury with K+ channel blockers ([1]; FIG. 16): blocks RGC death after ONC to the same extent as TPEN; also recorded: strong effect
concentration affording strong protection of RGCs ([1]; mouse, in vivo): < 100 µM and 100 µM

c1ccc(CN(CCN(Cc2ccccn2)Cc2ccccn2)Cc2ccccn2)nc1 [TPEN, N,N,N′,N′-tetrakis(2-pyridylmethyl)ethylenediamine]
free Zn2+ level / AMG labeling in the retina after optic nerve injury [3]: diminishes Zn2+ levels; also recorded: blocked injury-induced labeling in the IPL
added effect of pre-treatment (additional injection one day before ONC) on RGC survival ([1]; compared with injections on day 0 and day 4 only): not augmented; also recorded: did not enhance RGC survival
effect on RGC survival 2 weeks after ONC [1, 9]: protected RGCs
most effective concentration for RGC survival ([1]; intraocular, day 0 and day 4 after optic nerve crush, survival at 2 weeks): 100 µM
RGC survival in combination with pten gene deletion ([1]; pten deleted in RGCs by AAV2-Cre, 2 weeks): no additional effect
RGC survival when chelator given only on Day 3 [1]: fully protective
long-lasting RGC survival ([1]; up to 12 wk after ONC): enduring protection
injury-induced decrease in Bcl-xL [4]: suppressed; also recorded: partially blocks Bcl-xL loss after ONC
maximally effective concentration for axon regeneration (unit not given) ([2]; in µM): 100-500
added effect of pre-treatment (additional injection one day before ONC) on axon regeneration [2]: markedly increased the number of regenerating axons; also recorded: augmented the amount of regeneration
most effective concentration for axon regeneration [2]: 100 µM
effect on axon regeneration [2]: led to axon outgrowth
axon regeneration in combination with pten gene deletion [2]: much greater effects on regeneration than either one alone; also recorded: double
axon regeneration when injected on D3 ([2]; single administration 3 d after ONC): did not promote regeneration
injury-induced increase in Caspase-3 [5]: suppressed; also recorded: diminishes the number of Caspase-3 positive cells

O=S(=O)(O)c1ccccc1NCCN(Cc1ccccn1)Cc1ccccn1 [ZX1]
free Zn2+ level / AMG labeling in the retina after optic nerve injury [3]: blocked injury-induced labeling in the IPL
dose dependence of RGC survival ([1]; ZX1 between 10 μM and 10 mM): roughly equally effective in promoting cell survival; also recorded: equally protective against RGC death at all concentrations from 10 μM up
effect on RGC survival 2 weeks after ONC [1, 9]: just as effective as TPEN; also recorded: doubled
RGC survival when chelator given only on Day 3 [1]: less effective
axon outgrowth of cultured RGCs [6]: no effect
GAP-43-positive axons at 0.5 mm from crush site ([2]; 2 weeks after crush, ZX1 10 μM˜10 mM injection, crush alone 7.05±2.49 axons): up to 164 axons
maximally effective concentration for axon regeneration (unit not given) [2]: 30 µM
added effect of pre-treatment (additional injection one day before ONC) on axon regeneration [2]: augmented the amount of regeneration
most effective concentration for axon regeneration [2]: 100 µM
effect on axon regeneration [2]: induces extensive regeneration; also recorded: similarly effective in inducing regeneration
axon regeneration when added to Zymosan + cAMP alone ([2]; long-term, FIG. 18): increases the effect of Zymosan+ cAMP alone
axon regeneration when added to Zymosan, elevation of cAMP and pten gene deletion ([2]; long-term, examined 12 weeks after chelator): nearly doubles the amount of regeneration seen at short distances from the injury site
axon regeneration in combination with pten gene deletion [2]: double

O=C(O)CN(CCN(CC(=O)O)CC(=O)O)CC(=O)O.[Zn] [ZnEDTA]
effect on RGC survival 2 weeks after ONC ([1]; mouse, in vivo): not
effect on axon regeneration [2]: not

CC(=O)Oc1ccc(C(OS(=O)(=O)c2ccccc2NCCN(Cc2ccccn2)Cc2ccccn2)C(F)(F)F)cc1 (stereo not shown) [compound 3, 4-(1-(((2-((2-(bis(pyridin-2-ylmethyl)amino)ethyl)amino)phenyl)sulfonyl)oxy)-2,2,2-trifluoroethyl)phenyl acetate]
susceptibility to esterase cleavage [7]: susceptible to enzymatic cleavage to afford ZX1
stability toward hydrolysis [8]: stable at pH 7 for several days without being hydrolyzed

Agitoxin-2: blocker of Shaker family K+ channels Kv1.1 and 1.3
RGC survival after optic nerve injury with K+ channel blockers ([1]; FIG. 16): only a small effect on RGC survival
RGC survival in combination with TPEN ([1]; FIG. 16): does not augment the effect of TPEN
RGC survival after optic nerve injury with K+ channel blockers ([1]; FIG. 16, listed as AgTx2): slightly improves RGC survival

— patent publication US20180085359A1, “USE OF CHELATORS OF DIVALENT CATIONS TO PROMOTE NERVE REGENERATION” (CHILDREN'S MEDICAL CENTER CORPORATION, priority 2012, published 2018)
